The results in this text go back to patent US9290536B2, “C4 monomethyl triterpenoid derivatives and methods of use thereof” (Reata Pharmaceuticals, Inc., priority 2011, dated 2016).

SMILES strings stand for the structures.

The assay relates to IFNγ-induced NO production in RAW264.7. In words: Suppression of IFNγ-induced NO production in RAW264.7 mouse macrophages (Griess reagent, normalized to WST-1 cell viability). Type of assay: cell-based. The conditions noted are these: RAW264.7 cells, 2 h pre-treatment with drug (0-200 nM), then IFNγ for 24 h. The procedure: Nitric Oxide Production and Cell Viability. […] On the next day, cells were pre-treated with DMSO or drug (0-200 nM dose range) for 2 hours, and then treated with recombinant mouse IFNγ (R&D Systems) for 24 hours. Nitric Oxide concentration in media was determined using the Griess reagent system (Promega). Cell viability was determined using WST-1 reagent (Roche). IC50 values were determined based on the suppression of IFNγ induced Nitric Oxide production normalized to cell viability.
Background: Griess reagent forms a coloured azo dye with nitrite.
For orientation: IC50 means the concentration needed to halve the response being measured. Turning to `C[C@@H]1C(=O)C(C#N)=C[C@]2(C)C3=CC(=O)[C@@H]4[C@@H]5CC(C)(C)CC[C@]5(COC(=O)CN)CC[C@@]4(C)[C@]3(C)CC[C@@H]12` [TX63717], the 50% inhibitory concentration (IC50) was determined as 0.6 nM. As for `C[C@@H]1C(=O)C(C#N)=C[C@]2(C)[C@H]3CC(=O)[C@@H]4[C@@H]5CC(C)(C)CC[C@]5(C(=O)O)CC[C@@]4(C)[C@]3(C)CC[C@@H]12` [TX63797], the figure is 21 nM; as for `CCNC(=O)N[C@]12CCC(C)(C)C[C@H]1[C@H]1C(=O)C=C3[C@@]4(C)C=C(C#N)C(=O)[C@@H](C)[C@@H]4CC[C@@]3(C)[C@]1(C)CC2` [TX63826], 4.4 nM. `C[C@@H]1C(=O)C(C#N)=C[C@]2(C)[C@H]3CC(=O)[C@@H]4[C@@H]5CC(C)(C)CC[C@]5(COC(=O)C(F)(F)F)CC[C@@]4(C)[C@]3(C)CC[C@@H]12` [TX63841]: the IC50 was determined as 4.5 nM.

`C[C@@H]1C(=O)C(C#N)=C[C@]2(C)[C@H]3CC(=O)[C@@H]4[C@@H]5CC(C)(C)CC[C@]5(C(N)=O)CC[C@@]4(C)[C@]3(C)CC[C@@H]12` [TX63816]: the IC50 is 10.2 nM. On to `CNC(=O)CC[C@]12CCC(C)(C)C[C@H]1[C@H]1C(=O)C=C3[C@@]4(C)C=C(C#N)C(=O)[C@@H](C)[C@@H]4CC[C@@]3(C)[C@]1(C)CC2` [TX63886], for which the IC50 was found to be 0.3 nM.

Take `C[C@@H]1C(=O)C(C#N)=C[C@]2(C)C3=CC(=O)[C@@H]4[C@@H]5CC(C)(C)CC[C@]5(CCC(=O)NC5COC5)CC[C@@]4(C)[C@]3(C)CC[C@@H]12` [TX63914]: the IC50 was determined as 0.4 nM. `CC(=O)NNC(=O)CC[C@]12CCC(C)(C)C[C@H]1[C@H]1C(=O)C=C3[C@@]4(C)C=C(C#N)C(=O)[C@@H](C)[C@@H]4CC[C@@]3(C)[C@]1(C)CC2` [TX63915]: the IC50 amounted to 4 nM. With `C[C@@H]1C(=O)C(C#N)=C[C@]2(C)C3=CC(=O)[C@@H]4[C@@H]5CC(C)(C)CC[C@]5(C(=O)NC5COC5)CC[C@@]4(C)[C@]3(C)CC[C@@H]12` [TX63825], the IC50 amounted to 2 nM. For `COC[C@]12CCC(C)(C)C[C@H]1[C@H]1C(=O)C[C@@H]3[C@@]4(C)C=C(C#N)C(=O)[C@@H](C)[C@@H]4CC[C@@]3(C)[C@]1(C)CC2` [TX63858], the IC50 was found to be 7.2 nM.

Regarding `CCOC(=O)N[C@]12CCC(C)(C)C[C@H]1[C@H]1C(=O)C=C3[C@@]4(C)C=C(C#N)C(=O)[C@@H](C)[C@@H]4CC[C@@]3(C)[C@]1(C)CC2` [TX63800], the IC50 was 0.9 nM.

On to `C[C@@H]1C(=O)C(C#N)=C[C@]2(C)C3=CC(=O)[C@@H]4[C@@H]5CC(C)(C)CC[C@]5(N)CC[C@@]4(C)[C@]3(C)CC[C@@H]12` [TX63620], for which the IC50 was found to be 1.2 nM. Consider `CCC(=O)N[C@]12CCC(C)(C)C[C@H]1[C@H]1C(=O)C=C3[C@@]4(C)C=C(C#N)C(=O)[C@@H](C)[C@@H]4CC[C@@]3(C)[C@]1(C)CC2` [TX63864], for which the half-maximal inhibitory concentration (IC50) came out at 1.9 nM. Take `CONC(=O)[C@]12CCC(C)(C)C[C@H]1[C@H]1C(=O)C=C3[C@@]4(C)C=C(C#N)C(=O)[C@@H](C)[C@@H]4CC[C@@]3(C)[C@]1(C)CC2` [TX63882]: the concentration for half-maximal inhibition (IC50) was determined as 1.6 nM.

In the case of `COC(=O)[C@]12CCC(C)(C)C[C@H]1[C@H]1C(=O)C=C3[C@@]4(C)C=C(C(N)=O)C(=O)[C@@H](C)[C@@H]4CC[C@@]3(C)[C@]1(C)CC2` [TX63831], the IC50 stood at 21 nM. As for `C[C@@H]1C(=O)C(C#N)=C[C@]2(C)C3=CC(=O)[C@@H]4[C@@H]5CC(C)(C)CC[C@]5(C#N)CC[C@@]4(C)[C@]3(C)CC[C@@H]12` [TX63558], the IC50 is 0.6 nM. Consider `COCCC[C@]12CCC(C)(C)C[C@H]1[C@H]1C(=O)C=C3[C@@]4(C)C=C(C#N)C(=O)[C@@H](C)[C@@H]4CC[C@@]3(C)[C@]1(C)CC2` [TX63919], for which the IC50 was 1.4 nM. As for `C[C@@H]1C(=O)C(C#N)=C[C@]2(C)C3=CC(=O)[C@@H]4[C@@H]5CC(C)(C)CC[C@]5(CCC(=O)N5CCCC5)CC[C@@]4(C)[C@]3(C)CC[C@@H]12` [TX63893], the figure is 0.5 nM. With `C[C@@H]1C(=O)C(C#N)=C[C@]2(C)C3=CC(=O)[C@@H]4[C@@H]5CC(C)(C)CC[C@]5(NC(=O)C5CC5)CC[C@@]4(C)[C@]3(C)CC[C@@H]12` [TX63866], the concentration for half-maximal inhibition (IC50) was 1.4 nM. With `C[C@@H]1C(=O)C(C#N)=C[C@]2(C)C3=CC(=O)[C@@H]4[C@@H]5CC(C)(C)CC[C@]5(OC(N)=O)CC[C@@]4(C)[C@]3(C)CC[C@@H]12` [TX63929], the 50% inhibitory concentration (IC50) worked out at 0.5 nM.

With `CCNC(=O)[C@]12CCC(C)(C)C[C@H]1[C@H]1C(=O)C[C@@H]3[C@@]4(C)C=C(C#N)C(=O)[C@@H](C)[C@@H]4CC[C@@]3(C)[C@]1(C)CC2` [TX63680], the IC50 came to 7 nM.

Take `COCC(=O)NNC(=O)[C@]12CCC(C)(C)C[C@H]1[C@H]1C(=O)C=C3[C@@]4(C)C=C(C#N)C(=O)[C@@H](C)[C@@H]4CC[C@@]3(C)[C@]1(C)CC2` [TX63784]: the IC50 was determined as 7.5 nM. On to `C[C@@H]1C(=O)C(C#N)=C[C@]2(C)C3=CC(=O)[C@@H]4[C@@H]5CC(C)(C)CC[C@]5(CCC(=O)N5CCC(F)(F)C5)CC[C@@]4(C)[C@]3(C)CC[C@@H]12` [TX63890], for which the IC50 is 0.8 nM.

As for `Cc1noc([C@]23CCC(C)(C)C[C@H]2[C@H]2C(=O)C=C4[C@@]5(C)C=C(C#N)C(=O)[C@@H](C)[C@@H]5CC[C@@]4(C)[C@]2(C)CC3)n1` [TX63787], the IC50 worked out at 0.8 nM. Turning to `C[C@@H]1C(=O)C(C#N)=C[C@]2(C)C3=CC(=O)[C@@H]4[C@@H]5CC(C)(C)CC[C@]5(NC(N)=O)CC[C@@]4(C)[C@]3(C)CC[C@@H]12` [TX63862], the IC50 was found to be 28 nM.

Take `C[C@@H]1C(=O)C(C#N)=C[C@]2(C)C3=CC(=O)[C@@H]4[C@@H]5CC(C)(C)CC[C@]5(C(=O)N5CCOCC5)CC[C@@]4(C)[C@]3(C)CC[C@@H]12` [TX63881]: the half-maximal inhibitory concentration (IC50) amounted to 0.9 nM. With `C[C@@H]1C(=O)C(C#N)=C[C@]2(C)C3=CC(=O)[C@@H]4[C@@H]5CC(C)(C)CC[C@@H]5CC[C@@]4(C)[C@]3(C)CC[C@@H]12` [TX63869], the IC50 stood at 3.8 nM.

On to `C[C@@H]1C(=O)C(C#N)=C[C@]2(C)C3=CC(=O)[C@@]4(C)[C@@H]5CC(C)(C)CC[C@]56CC[C@]4(OC6=O)[C@]3(C)CC[C@@H]12` [TX63556], for which the IC50 turned out to be 69 nM. In the case of `CCCCNC(=O)[C@]12CCC(C)(C)C[C@H]1[C@H]1C(=O)C[C@@H]3[C@@]4(C)C=C(C#N)C(=O)[C@@H](C)[C@@H]4CC[C@@]3(C)[C@]1(C)CC2` [TX63843], the half-maximal inhibitory concentration (IC50) was 10.9 nM. Consider `CCOC(=O)[C@]12CCC(C)(C)C[C@H]1[C@H]1C(=O)C[C@@H]3[C@@]4(C)C=C(C#N)C(=O)[C@@H](C)[C@@H]4CC[C@@]3(C)[C@]1(C)CC2` [TX63842], for which the IC50 amounted to 6.1 nM.

With `C/C(=N\O)NC(=O)[C@]12CCC(C)(C)C[C@H]1[C@H]1C(=O)C=C3[C@@]4(C)C=C(C#N)C(=O)[C@@H](C)[C@@H]4CC[C@@]3(C)[C@]1(C)CC2` [TX63786], the IC50 worked out at 2.2 nM. On to `C[C@@H]1C(=O)C(C#N)=C[C@]2(C)C3=C[C@@H](O)[C@]4(O)[C@@H]5CC(C)(C)CC[C@]5(CO)CC[C@@]4(C)[C@]3(C)CC[C@@H]12` [TX63904], for which the IC50 came out at 10.4 nM. For the compound `Cc1nnc(CC[C@]23CCC(C)(C)C[C@H]2[C@H]2C(=O)C=C4[C@@]5(C)C=C(C#N)C(=O)[C@@H](C)[C@@H]5CC[C@@]4(C)[C@]2(C)CC3)o1` [TX63916], the IC50 is 0.4 nM.

`Cc1cn(C(=O)[C@]23CCC(C)(C)C[C@H]2[C@H]2C(=O)C=C4[C@@]5(C)C=C(C#N)C(=O)[C@@H](C)[C@@H]5CC[C@@]4(C)[C@]2(C)CC3)c(C)n1` [TX63822]: the IC50 turned out to be 0.7 nM. Consider `CSCOC[C@]12CCC(C)(C)C[C@H]1[C@H]1C(=O)C[C@@H]3[C@@]4(C)C=C(C#N)C(=O)[C@@H](C)[C@@H]4CC[C@@]3(C)[C@]1(C)CC2` [TX63859], for which the IC50 amounted to 14.6 nM. For the compound `CC(=O)OCCC[C@]12CCC(C)(C)C[C@H]1[C@H]1C(=O)C=C3[C@@]4(C)C=C(C#N)C(=O)[C@@H](C)[C@@H]4CC[C@@]3(C)[C@]1(C)CC2` [TX63920], the IC50 turned out to be 0.9 nM. As for `CCNC(=O)[C@]12CCC(C)(C)C[C@H]1[C@H]1C(=O)C=C3[C@@]4(C)C=C(C#N)C(=O)[C@@H](C)[C@@H]4CC[C@@]3(C)[C@]1(C)CC2` [TX63521], the half-inhibitory concentration (IC50) amounted to 1.1 nM. On to `C[C@@H]1C(=O)C(C#N)=C[C@]2(C)C3=CC(=O)[C@@H]4[C@@H]5CC(C)(C)CC[C@]5(NS(=O)(=O)CC(F)(F)F)CC[C@@]4(C)[C@]3(C)CC[C@@H]12` [TX63818], for which the IC50 turned out to be 0.8 nM. On to `C[C@@H]1C(=O)C(C#N)=C[C@]2(C)C3=CC(=O)[C@@H]4[C@@H]5CC(C)(C)CC[C@]5(NC(=O)N(C)C)CC[C@@]4(C)[C@]3(C)CC[C@@H]12` [TX63875], for which the half-inhibitory concentration (IC50) was 1.3 nM. Next, `CCNC(=O)OCCC[C@]12CCC(C)(C)C[C@H]1[C@H]1C(=O)C=C3[C@@]4(C)C=C(C#N)C(=O)[C@@H](C)[C@@H]4CC[C@@]3(C)[C@]1(C)CC2` [TX63982]: 3.5 nM; `C[C@@H]1C(=O)C(C#N)=C[C@]2(C)[C@H]3CC(=O)[C@@H]4[C@@H]5CC(C)(C)CC[C@]5(C(=O)NO)CC[C@@]4(C)[C@]3(C)CC[C@@H]12` [TX63814]: 19 nM; `C[C@@H]1C(=O)C(C#N)=C[C@]2(C)C3=CC(=O)[C@@H]4[C@@H]5CC(C)(C)CC[C@]5(NC=O)CC[C@@]4(C)[C@]3(C)CC[C@@H]12` [TX63681]: 1.6 nM. `C[C@@H]1C(=O)C(C#N)=C[C@]2(C)C3=CC(=O)[C@@H]4[C@@H]5CC(C)(C)CC[C@]5(NC(=O)c5ccccc5)CC[C@@]4(C)[C@]3(C)CC[C@@H]12` [TX63798]: the IC50 worked out at 1.5 nM.
